For one experiment, the target named is T1, human ROCKα/ROCKII mix (Homo sapiens, UniProt O75116).
T1 construct: purchased Upstate Biotechnology 14-451
The experiment can be described thus: Biochemical assay for ROCK (fluorescence polarization, ROCK IMAP Kit).

In another experiment the target is T2, PKC epsilon (Homo sapiens, UniProt Q02156).
T2 construct: purchased Invitrogen P2282
T2 sequence (Q02156 1-737): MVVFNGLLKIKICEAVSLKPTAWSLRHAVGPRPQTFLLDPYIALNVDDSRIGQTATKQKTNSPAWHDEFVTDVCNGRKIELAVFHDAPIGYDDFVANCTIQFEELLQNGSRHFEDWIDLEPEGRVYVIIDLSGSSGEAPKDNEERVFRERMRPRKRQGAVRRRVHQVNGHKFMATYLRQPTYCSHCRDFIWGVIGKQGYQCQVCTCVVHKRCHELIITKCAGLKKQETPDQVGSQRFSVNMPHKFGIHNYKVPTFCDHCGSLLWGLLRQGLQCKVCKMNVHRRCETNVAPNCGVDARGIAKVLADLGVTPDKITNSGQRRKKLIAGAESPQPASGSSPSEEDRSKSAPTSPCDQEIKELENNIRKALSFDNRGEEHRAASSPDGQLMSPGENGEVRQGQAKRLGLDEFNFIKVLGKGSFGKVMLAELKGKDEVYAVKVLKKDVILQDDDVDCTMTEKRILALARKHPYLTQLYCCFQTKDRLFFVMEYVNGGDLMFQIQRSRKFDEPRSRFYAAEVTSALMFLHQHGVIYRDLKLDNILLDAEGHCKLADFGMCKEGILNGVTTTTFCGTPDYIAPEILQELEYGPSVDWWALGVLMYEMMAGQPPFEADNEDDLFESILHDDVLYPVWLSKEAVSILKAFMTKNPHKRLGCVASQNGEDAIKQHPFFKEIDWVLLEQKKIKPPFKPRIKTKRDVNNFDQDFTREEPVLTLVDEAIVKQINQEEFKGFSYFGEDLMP
The experiment can be described thus: Biochemical assay for PKC epsilon (fluorescence polarization, Protein Kinase C Assay Kit, Red). The note with it: read-out: IC50 μM PKCε. The method in brief:
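Read-out was fluorescence-polarization competition between phosphorylated substrate and a rhodamine PKC tracer for an anti-phosphoserine antibody, added with EDTA stop after an 80 min room-temperature kinase reaction with ATP and protein substrate (Mg2+/Ca2+ buffer). Enzyme (10 ng/ml final) was preincubated with compound for 30 min.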
A general note: Polarisation of emitted light reports the rotation of a fluorescent probe.

[1] abbreviates: Table 2, compounds of Formula XIII.
Where [2] appears, read: compounds of Formula XIV, Table 3.

Where two headings read alike, the source gives them in different places.

T1 sequence (O75116 11-552 limits assumed): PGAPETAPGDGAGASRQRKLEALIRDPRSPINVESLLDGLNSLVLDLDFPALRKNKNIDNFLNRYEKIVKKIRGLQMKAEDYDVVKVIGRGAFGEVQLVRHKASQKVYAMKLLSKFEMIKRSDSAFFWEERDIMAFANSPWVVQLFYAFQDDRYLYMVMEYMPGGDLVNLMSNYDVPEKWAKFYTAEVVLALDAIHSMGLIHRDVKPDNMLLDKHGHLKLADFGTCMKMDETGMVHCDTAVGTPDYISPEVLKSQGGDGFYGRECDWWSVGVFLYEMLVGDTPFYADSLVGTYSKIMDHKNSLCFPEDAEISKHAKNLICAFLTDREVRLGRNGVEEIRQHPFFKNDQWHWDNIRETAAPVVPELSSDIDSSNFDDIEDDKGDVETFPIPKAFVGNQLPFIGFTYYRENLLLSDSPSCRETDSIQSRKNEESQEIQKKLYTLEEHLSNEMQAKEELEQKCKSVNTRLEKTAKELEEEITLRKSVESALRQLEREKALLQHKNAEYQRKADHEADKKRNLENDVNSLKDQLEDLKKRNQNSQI

As for `NC(CNC(=O)c1ccsc1)c1ccc(C(=O)Nc2ccncc2)cc1` (stereo not shown) [Compound 115, Thiophene-3-carboxylic acid {2-amino-2-[4-(pyridin-4-ylcarbamoyl)-phenyl]-ethyl}-amide], the IC50 at human ROCKα/ROCKII mix (setting [1]) lay within 0.05 to 0.5 µM; on PKC epsilon (setting [1]), 0.5 to 5 µM.

As to `NC(c1ccc(C(=O)Nc2ccncc2)cc1)C1CCCN1C(=O)Cc1ccc(Cl)cc1F` (stereo not shown) [Compound 598, 4-(Amino-{1-[2-(4-chloro-2-fluoro-phenyl)-acetyl]-pyrrolidin-2-yl}-methyl)-N-pyridin-4-yl-benzamide], the IC50 against human ROCKα/ROCKII mix was 0.5 to 5 µM; on PKC epsilon it was 5 to 50 µM.

Regarding `CC(=O)NCCNC(=O)CC(N)c1ccc(C(=O)Nc2ccncc2)cc1` (stereo not shown) [Compound 175, 4-[2-(2-acetylamino-ethylcaramoyl)-1-amino-ethyl]-N-pyridin-4-yl-benzamide], the IC50 at human ROCKα/ROCKII mix (setting [2]) was in the range of 0.05 to 0.5 µM; on PKC epsilon (setting [2]), 0.5 to 5 µM.

In the case of `NC(CNC(=O)Cc1cccc(Cl)c1)c1ccc(C(=O)Nc2ccncc2)cc1` (stereo not shown) [Compound 147, 4-{1-Amino-2-[2-(3-chloro-phenyl)-acetylamino]-ethyl}-N-pyridin-4-yl-benzamide], the IC50 on human ROCKα/ROCKII mix (setting [1]) was 0.05 to 0.5 µM; at PKC epsilon (setting [1]) it was 0.5 to 5 µM.

Take `COc1ccc(CNC(=O)CC(N)c2ccc(C(=O)Nc3ccncc3)cc2)cc1` (stereo not shown) [Compound 239, 4-[1-Amino-2-(4-methoxy-benzylcarbamoyl)-ethyl]-N-pyridin-4-yl-benzamide]: the IC50 on human ROCKα/ROCKII mix (setting [2]) fell in the range of 0.05 to 0.5 µM; at PKC epsilon (setting [2]), 0.5 to 5 µM.

Take `Cc1ccccc1C(=O)NCC(N)c1ccc(C(=O)Nc2ccncc2)cc1` (stereo not shown) [Compound 84, 4-[1-amino-2-(2-methyl-benzoylamino)-ethyl]-N-pyridin-4-yl-benzamide]: the results for the IC50 at human ROCKα/ROCKII mix (setting [1]) and on PKC epsilon (setting [1]) were 0.5 to 5 µM and 5 to 50 µM, respectively.

As for `Cc1cccc(CC(=O)N2CCCC2C(N)c2ccc(C(=O)Nc3ccncc3)cc2)c1` (stereo not shown) [Compound 524, 4-{Amino-[1-(2-m-tolyl-acetyl)-pyrrolidin-2-yl]-methyl}-N-pyridin-4-yl-benzamide], the IC50 at human ROCKα/ROCKII mix lay in the range of 0.5 to 5 µM; on PKC epsilon it was 5 to 50 µM.

Turning to “4-(1-Amino-2-{methyl-[2-(2- phenyl-thiazol-4-yl)-acetyl]- amino}-ethyl)- N-pyridin-4-yl-benzamide [Compound 445]”, the IC50 at human ROCKα/ROCKII mix was 0.5 to 5 µM; at PKC epsilon, 5 to 50 µM.

Turning to `NC(CNC(=O)Nc1ccccc1F)c1ccc(C(=O)Nc2ccncc2)cc1` (stereo not shown) [Compound 20, 4-{1-amino-2-[3-(2-fluoro-phenyl)-ureido]-ethyl}-N-pyridin-4-yl-benzamide], the IC50 on human ROCKα/ROCKII mix fell in the range of 0.05 to 0.5 µM; at PKC epsilon it was 0.5 to 5 µM.

As to `NC(CNC(=O)C1(c2cccs2)CC1)c1ccc(C(=O)Nc2ccncc2)cc1` (stereo not shown) [Compound 349, 4-{1-Amino-2-[(1-thiophen-2-yl-cyclopropanecarbonyl)-amino]-ethyl}-N-pyridin-4-yl-benzamide], the IC50 against human ROCKα/ROCKII mix (setting [1]) and at PKC epsilon (setting [1]) was 0.05 to 0.5 µM each time.

As for `CN(CC(N)c1ccc(C(=O)Nc2ccncc2)cc1)C(=O)Cc1ccc(Cl)cc1Cl` (stereo not shown) [Compound 490, 4-(1-Amino-2-{[2-(2,4-dichloro-phenyl)-acetyl]-methyl-amino}-ethyl)-N-pyridin-4-yl-benzamide], the IC50 against human ROCKα/ROCKII mix lay within 0.5 to 5 µM; on PKC epsilon, 5 to 50 µM.

As for `NC(CNC(=O)C1(c2ccc(Cl)c(Cl)c2)CC1)c1ccc(C(=O)Nc2ccncc2)cc1` (stereo not shown) [Compound 345, 4-(1-Amino-2-{[1-(3,4-dichloro-phenyl)-cyclopropanecarbonyl]-amino}-ethyl)-N-pyridin-4-yl-benzamide], the IC50 against human ROCKα/ROCKII mix (setting [1]) and at PKC epsilon (setting [1]) was 0.05 to 0.5 µM in each case.

As for `COc1ccc(CC(=O)NCC(N)c2ccc(C(=O)Nc3ccncc3)cc2)cc1F` (stereo not shown) [Compound 327, 4-{1-Amino-2-[2-(3-fluoro-4-methoxy-phenyl)-acetylamino]-ethyl}-N-pyridin-4-yl-benzamide], the IC50 is 0.05 to 0.5 µM at human ROCKα/ROCKII mix (setting [1]) and 0.5 to 5 µM at PKC epsilon (setting [1]).

Turning to `CC(C)(NC(=O)CC(N)c1ccc(C(=O)Nc2ccncc2)cc1)c1ccc(Cl)cc1` (stereo not shown) [Compound 622, 4-{1-Amino-2-[1-(4-chloro-phenyl)-1-methyl-ethylcarbamoyl]-ethyl}-N-pyridin-4-yl-benzamide], the IC50 against human ROCKα/ROCKII mix (setting [2]) and at PKC epsilon (setting [2]) was 0.05 to 0.5 µM in each case.

On to `NC(c1ccc(C(=O)Nc2ccncc2)cc1)C1CCCN1C(=O)Cc1ccc(-c2ccccc2)cc1` (stereo not shown) [Compound 537, 4-{Amino-[1-(2-biphenyl-4-yl-acetyl)-pyrrolidin-2-yl]-methyl}-N-pyridin-4-yl-benzamide], for which the IC50 at human ROCKα/ROCKII mix and on PKC epsilon was 0.5 to 5 µM throughout.

In the case of `Cc1ccc(CNC(=O)CC(N)c2ccc(C(=O)Nc3ccncc3)cc2)cc1` (stereo not shown) [Compound 233, 4-[1-Amino-2-(4-methyl-benzylcarbamoyl)-ethyl]-N-pyridin-4-yl-benzamide], the IC50 fell in the range of 0.05 to 0.5 µM against human ROCKα/ROCKII mix (setting [2]) and 0.5 to 5 µM on PKC epsilon (setting [2]).

With `NC(CC(=O)NCCc1ccc(Oc2ccccc2)cc1)c1ccc(C(=O)Nc2ccncc2)cc1` (stereo not shown) [Compound 292, 4-{1-Amino-2-[2-(4-phenoxy-phenyl)-ethylcarbamoyl]-ethyl}-N-pyridin-4-yl-benzamide], the IC50 fell in the range of 0.05 to 0.5 µM on human ROCKα/ROCKII mix (setting [2]) and 0.5 to 5 µM on PKC epsilon (setting [2]).

In the case of `NC(CC(=O)NCCc1ccc(Cl)c(Cl)c1)c1ccc(C(=O)Nc2ccncc2)cc1` (stereo not shown) [Compound 304], the results for the IC50 at human ROCKα/ROCKII mix (setting [2]) and on PKC epsilon (setting [2]) were 0.05 to 0.5 µM and 0.5 to 5 µM, respectively.

As for `NC(c1ccc(C(=O)Nc2ccncc2)cc1)C1CCCN1C(=O)Cc1cccc(F)c1F` (stereo not shown) [Compound 578, 4-(Amino-{1-[2-(2,3-difluoro-phenyl)-acetyl]-pyrrolidin-2-yl}-methyl)-N-pyridin-4-yl-benzamide], the IC50 at human ROCKα/ROCKII mix and on PKC epsilon was 0.5 to 5 µM throughout.

As for `NC(CC(=O)NCc1ccc(C(F)(F)F)cc1)c1ccc(C(=O)Nc2ccncc2)cc1` (stereo not shown) [Compound 265, 4-[1-Amino-2-(4-trifluoromethyl-benzylcarbamoyl)-ethyl]-N-pyridin-4-yl-benzamide], the IC50 was 0.05 to 0.5 µM at human ROCKα/ROCKII mix (setting [2]) and 0.5 to 5 µM at PKC epsilon (setting [2]).

For the molecule `CC(C)(NC(=O)CC(N)c1ccc(C(=O)Nc2ccncc2)cc1)c1ccccc1` (stereo not shown) [Compound 218, 4-[1-Amino-2-(1-methyl-1-phenyl-ethylcarbamoyl)-ethyl]-N-pyridin-4-yl-benzamide], the IC50 was in the range of 0.05 to 0.5 µM against human ROCKα/ROCKII mix (setting [2]) and 0.5 to 5 µM at PKC epsilon (setting [2]).

On to `NC(c1ccc(C(=O)Nc2ccncc2)cc1)C1CCCN1C(=O)Cc1ccc(O)c([N+](=O)[O-])c1` (stereo not shown) [Compound 540, 4-(Amino-{1-[2-(4-hydroxy-3-nitro-phenyl)-acetyl]-pyrrolidin-2-yl}-methyl)-N-pyridin-4-yl-benzamide], for which the IC50 against human ROCKα/ROCKII mix was in the range of 0.5 to 5 µM; at PKC epsilon, 5 to 50 µM.

Consider `NC(CNC(=O)C1(c2ccc(F)cc2F)CC1)c1ccc(C(=O)Nc2ccncc2)cc1` (stereo not shown) [Compound 385, 4-(1-Amino-2-{[1-(2,4-difluoro-phenyl)-cyclopropanecarbonyl]-amino}-ethyl)-N-pyridin-4-yl-benzamide], for which the IC50 against human ROCKα/ROCKII mix (setting [1]) was 0.05 to 0.5 µM; at PKC epsilon (setting [1]) it was under 0.05 µM.

As for “4-{1-Amino-2-[methyl-(2- naphthalen-1-yl-acetyl)- amino]-ethyl}- N-pyridin-4-yl-benzamide [Compound 435]”, the IC50 against human ROCKα/ROCKII mix is 0.5 to 5 µM; at PKC epsilon, 5 to 50 µM.

Regarding `NC(CC(=O)NCC1CCCO1)c1ccc(C(=O)Nc2ccncc2)cc1` (stereo not shown) [Compound 184, 4-{1-amino-2-[(tetrahydro-furan-2-ylmethyl)-carbamoyl]-ethyl}-N-pyridin-4-yl-benzamide], the values for the IC50 against human ROCKα/ROCKII mix (setting [2]) and on PKC epsilon (setting [2]) were 0.05 to 0.5 µM and 0.5 to 5 µM, respectively.

`NC(c1ccc(C(=O)Nc2ccncc2)cc1)C1CCCN1C(=O)Cc1ccc(C(F)(F)F)cc1` (stereo not shown) [Compound 559, 4-(Amino-{1-[2-(4-trifluoromethyl-phenyl)-acetyl]-pyrrolidin-2-yl}-methyl)-N-pyridin-4-yl-benzamide]: the IC50 against human ROCKα/ROCKII mix lay within 0.5 to 5 µM; on PKC epsilon, 5 to 50 µM.

For the molecule `NC(CNC(=O)CCC1CCCC1)c1ccc(C(=O)Nc2ccncc2)cc1` (stereo not shown) [Compound 51, 4-[1-Amino-2-(3-cyclopentyl-propionylamino)-ethyl]-N-pyridin-4-yl-benzamide], the half-inhibitory concentration (IC50) was in the range of 0.05 to 0.5 µM against human ROCKα/ROCKII mix (setting [1]) and 0.5 to 5 µM on PKC epsilon (setting [1]).

As to `Cc1ccccc1CC(=O)NCC(N)c1ccc(C(=O)Nc2ccncc2)cc1` (stereo not shown) [Compound 142, 4-{1-Amino-2-[2-(2-methyl-phenyl)-acetylamino]-ethyl}-N-pyridin-4-yl-benzamide], the values for the IC50 on human ROCKα/ROCKII mix (setting [1]) and at PKC epsilon (setting [1]) were 0.05 to 0.5 µM and 0.5 to 5 µM, respectively.

For `CC(C)(C)ON=Cc1cccc(C(=O)NCC(N)c2ccc(C(=O)Nc3ccncc3)cc2)c1` (racemic) [Compound 101, 4-{1-amino-2-[(3-tert-butoxyimino-methyl)-benzoylamino]-ethyl}-N-pyridin-4-yl-benzamide], the IC50 against human ROCKα/ROCKII mix (setting [1]) and at PKC epsilon (setting [1]) was 0.5 to 5 µM each time.

In general, IC50 refers to the midpoint of a concentration-inhibition curve.

These data come from US20100168102A9, “Amide Derivatives as Kinase Inhibitors” (Devgen NV, priority 2005, published 2010).
